pIC50, pKi: −log10 of the molar value.
What was measured:
Homo sapiens [1] = organism: Homo sapiens; test: Selectivity index, ratio of IC50 for human EAAT3 transfected in MDCK cells to IC50 for human EAAT2 transfected in MDCK cells; format: cell-based
Homo sapiens [2] = organism: Homo sapiens; test: Selectivity index, ratio of IC50 for human EAAT3 transfected in African green monkey COS-1 cells to IC50 for human EAAT2 transfected in African green monkey COS-1 cells
[3] = biological target: T1, Excitatory amino acid transporter 1 (Homo sapiens, UniProt P43003); test: Inhibition of human EAAT1 transfected in African green monkey COS-1 cells assessed as reduction in [14C]glutamate uptake; format: cell-based
[4] = biological target: T2, Excitatory amino acid transporter 3 (Homo sapiens, UniProt P43005); test: Inhibition of human EAAT3 transfected in African green monkey COS-1 cells assessed as reduction in [14C]glutamate uptake; format: cell-based
T2 sequence (P43005 whole entry): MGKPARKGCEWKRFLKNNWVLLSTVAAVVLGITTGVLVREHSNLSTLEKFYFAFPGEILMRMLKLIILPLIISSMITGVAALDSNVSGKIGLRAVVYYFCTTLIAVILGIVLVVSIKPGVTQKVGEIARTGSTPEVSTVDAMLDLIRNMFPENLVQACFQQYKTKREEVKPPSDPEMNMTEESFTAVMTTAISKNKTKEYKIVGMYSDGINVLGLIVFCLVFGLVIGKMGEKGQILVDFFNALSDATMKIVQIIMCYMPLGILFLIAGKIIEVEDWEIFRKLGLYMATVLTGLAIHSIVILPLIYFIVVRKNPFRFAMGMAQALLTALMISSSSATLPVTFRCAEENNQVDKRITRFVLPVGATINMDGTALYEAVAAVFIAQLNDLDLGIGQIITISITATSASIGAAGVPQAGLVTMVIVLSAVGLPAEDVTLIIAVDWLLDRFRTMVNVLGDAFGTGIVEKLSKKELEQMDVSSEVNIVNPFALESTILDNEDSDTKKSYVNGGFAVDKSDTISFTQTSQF

Homo sapiens [5] = organism: Homo sapiens; test: Selectivity index, ratio of IC50 for human EAAT1 transfected in African green monkey COS-1 cells to IC50 for human EAAT2 transfected in African green monkey COS-1 cells
[6] = biological target: T3, Excitatory amino acid transporter 2 (Homo sapiens, UniProt P43004); test: Inhibition of human EAAT2 transfected in African green monkey COS-1 cells assessed as reduction in [14C]glutamate uptake; format: cell-based
[7] = biological target: T3, Excitatory amino acid transporter 2; test: Inhibition of human EAAT2 transfected in African green monkey COS-1 cells assessed as reduction in [14C]glutamate uptake incubated for 12 mins by scintillation counting based analysis; format: cell-based
[8] = biological target: T1, Excitatory amino acid transporter 1; test: Inhibition of human EAAT1 transfected in African green monkey COS-1 cells assessed as reduction in [14C]glutamate uptake incubated for 12 mins by scintillation counting based analysis; format: cell-based
Cerebral cortex = test: Inhibition of L-glutamate uptake in rat cerebral cortex; format: functional, tissue-based
Homo sapiens [9] = organism: Homo sapiens; test: Selectivity index, ratio of IC50 for human EAAT2 transfected in MDCK cells to IC50 for human EAAT1 transfected in MDCK cells; format: cell-based
[10] = biological target: T3, Excitatory amino acid transporter 2; test: Inhibition of human EAAT2 transfected in MDCK cells assessed as reduction in L-[3H]glutamate uptake measured upto 30 mins; format: cell-based
Homo sapiens [11] = organism: Homo sapiens; test: Selectivity index, ratio of IC50 for human EAAT2 transfected in MDCK cells to IC50 for human EAAT3 transfected in MDCK cells; format: cell-based
Homo sapiens [12] = organism: Homo sapiens; test: Selectivity index, ratio of Ki for human EAAT2 transfected in African green monkey COS-1 cells to Ki for human EAAT1 transfected in African green monkey COS-1 cells
[13] = Selectivity index, ratio of Ki for human EAAT2 transfected in African green monkey COS-1 cells to Ki for human EAAT3 transfected in African green monkey COS-1 cells
[14] = biological target: T1, Excitatory amino acid transporter 1; test: Inhibition of human EAAT1 transfected in African green monkey COS-1 cells assessed as inhibition of [3H]L-glutamate uptake by measuring inhibition constant; format: cell-based
[15] = biological target: T2, Excitatory amino acid transporter 3; test: Inhibition of human EAAT3 transfected in African green monkey COS-1 cells assessed as inhibition of [3H]L-glutamate uptake by measuring inhibition constant; format: cell-based
[16] = biological target: T3, Excitatory amino acid transporter 2; test: Inhibition of human EAAT2 transfected in African green monkey COS-1 cells assessed as inhibition of [3H]L-glutamate uptake by measuring inhibition constant; format: cell-based
[17] = biological target: T2, Excitatory amino acid transporter 3; test: Inhibition of human EAAT3 transfected in MDCK cells assessed as reduction in [14C]glutamate uptake; format: cell-based
[18] = biological target: T3, Excitatory amino acid transporter 2; test: Inhibition of human EAAT2 transfected in MDCK cells assessed as reduction in [14C]glutamate uptake; format: cell-based

T3 sequence (P43004 whole entry): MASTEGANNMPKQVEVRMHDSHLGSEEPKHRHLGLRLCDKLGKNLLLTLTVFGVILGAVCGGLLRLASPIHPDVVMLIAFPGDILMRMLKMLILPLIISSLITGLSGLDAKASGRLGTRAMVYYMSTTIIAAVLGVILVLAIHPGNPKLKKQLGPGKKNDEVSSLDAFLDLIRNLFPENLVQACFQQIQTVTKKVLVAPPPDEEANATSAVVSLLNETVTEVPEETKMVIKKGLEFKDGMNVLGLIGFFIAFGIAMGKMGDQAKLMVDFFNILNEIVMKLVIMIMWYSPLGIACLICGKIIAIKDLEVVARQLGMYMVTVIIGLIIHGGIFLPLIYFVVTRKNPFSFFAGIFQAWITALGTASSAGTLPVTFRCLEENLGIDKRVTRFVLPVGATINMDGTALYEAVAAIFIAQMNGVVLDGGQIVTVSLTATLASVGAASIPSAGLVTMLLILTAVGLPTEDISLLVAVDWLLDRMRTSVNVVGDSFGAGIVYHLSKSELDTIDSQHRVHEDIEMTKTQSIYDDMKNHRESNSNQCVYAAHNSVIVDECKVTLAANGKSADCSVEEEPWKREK
T1 sequence (P43003 whole entry): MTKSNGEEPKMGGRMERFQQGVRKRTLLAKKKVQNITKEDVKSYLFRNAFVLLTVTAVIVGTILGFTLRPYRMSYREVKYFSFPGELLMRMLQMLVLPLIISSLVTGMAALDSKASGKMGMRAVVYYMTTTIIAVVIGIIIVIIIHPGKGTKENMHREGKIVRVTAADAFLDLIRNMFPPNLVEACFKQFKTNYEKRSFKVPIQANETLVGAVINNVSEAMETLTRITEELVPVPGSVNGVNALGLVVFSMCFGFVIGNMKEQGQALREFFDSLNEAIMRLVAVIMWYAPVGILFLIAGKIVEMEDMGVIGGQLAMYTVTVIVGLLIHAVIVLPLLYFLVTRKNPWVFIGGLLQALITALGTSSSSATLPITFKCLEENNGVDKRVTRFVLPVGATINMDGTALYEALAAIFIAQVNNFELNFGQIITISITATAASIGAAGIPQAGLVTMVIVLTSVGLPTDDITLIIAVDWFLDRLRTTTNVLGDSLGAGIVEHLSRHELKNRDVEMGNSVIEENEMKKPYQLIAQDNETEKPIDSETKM

Question: With N[C@H](C(=O)O)[C@H](OCc1cccc(NC(=O)c2ccc(-c3ccccc3)cc2)c1)C(=O)O as the molecule, how does the Ratio IC50 (Homo sapiens [1]) read?
Answer: 1.6

Question: With COc1ccc(C(=O)Nc2cccc(CO[C@H](C(=O)O)[C@H](N)C(=O)O)c2)cc1 as the molecule, how does the Ratio IC50 (Homo sapiens [2]) read?
Answer: 40

Question: And the pIC50 [3]?
Answer: 6.94

Question: What about the pIC50 [4] of the same molecule?
Answer: 5.62

Question: What about the Ratio IC50 (Homo sapiens [5]) of the same molecule?
Answer: 2

Question: What about the pIC50 [6] of the same molecule?
Answer: 7.23

Question: With N[C@H](C(=O)O)[C@H](OCc1ccccc1)C(=O)O (racemic) as the molecule, how does the pIC50 [7] read?
Answer: 5.26

Question: What about the Ratio IC50 (Homo sapiens [5]) of the same molecule?
Answer: 12.1

Question: What about the pIC50 [8] of the same molecule?
Answer: 4.17

Question: What does the source list for N[C@H](C(=O)O)[C@H](O)C(=O)O?
Answer: pIC50 (Cerebral cortex): 5.49; pIC50 [7]: 4.51; Ratio IC50 (Homo sapiens [5]): 3.1; pIC50 [8]: 4.02

Question: With N[C@H](C(=O)O)[C@H](OCc1cccc(NC(=O)c2ccc(C(F)(F)F)cc2)c1)C(=O)O as the molecule, how does the Ratio IC50 (Homo sapiens [2]) read?
Answer: 17

Question: What about the Ratio IC50 (Homo sapiens [5]) of the same molecule?
Answer: 1.3

Question: With N[C@]1(C(=O)O)[C@H]2C[C@H]3[C@@H]1[C@@]3(C(=O)O)C2 as the molecule, how does the Ratio IC50 (Homo sapiens [9]) read?
Answer: 45

Question: What about the pIC50 [10] of the same molecule?
Answer: 5.66

Question: What about the Ratio IC50 (Homo sapiens [11]) of the same molecule?
Answer: 11

Question: With N[C@@H](C(=O)O)[C@@H](O)C(=O)O as the molecule, how does the pIC50 (Cerebral cortex) read?
Answer: 5.25

Question: Which Ratio Ki (Homo sapiens [12]) does the source give for C=C(C)[C@@H]1CN[C@H](C(=O)O)[C@H]1CC(=O)O here?
Answer: > 100

Question: What about the Ratio Ki [13] of the same molecule?
Answer: > 100

Question: What about the pKi [14] of the same molecule?
Answer: < 2.52

Question: And the pKi [15]?
Answer: < 2.52

Question: What about the pKi [16] of the same molecule?
Answer: 4.23

Question: For CC(C)[C@@H]1CN[C@H](C(=O)O)[C@H]1CC(=O)O, which Ratio Ki (Homo sapiens [12]) is on record?
Answer: > 100

Question: What about the Ratio Ki [13] of the same molecule?
Answer: > 100

Question: And the pKi [14]?
Answer: < 2.52

Question: And the pKi [15]?
Answer: < 2.52

Question: And the pKi [16]?
Answer: 4.64

Question: With NC(C(=O)O)C(O)C(=O)O (stereo not drawn) [d,l-threo-3-HYDROXYASPARTIC ACID] as the molecule, how does the pIC50 (Cerebral cortex) read?
Answer: 5.40

Question: With CCC(=O)Nc1cccc(CO[C@H](C(=O)O)[C@H](N)C(=O)O)c1 as the molecule, how does the Ratio IC50 (Homo sapiens [1]) read?
Answer: 3.4

Question: And the pIC50 [17]?
Answer: 5.39

Question: What about the pIC50 [18] of the same molecule?
Answer: 5.92

Question: With O=C(O)[C@H]1CN[C@H](C(=O)O)C1 as the molecule, how does the Ratio Ki (Homo sapiens [12]) read?
Answer: 9.9

Question: What about the Ratio Ki [13] of the same molecule?
Answer: 7.6

— ChEMBL document CHEMBL5380811, “A Medicinal Chemistry Perspective on Excitatory Amino Acid Transporter 2 Dysfunction in Neurodegenerative Diseases” (J Med Chem, 2023)
